Laboratory results published in PubChem BioAssay (NCI).
Several values for one entry are separate records, joined by “and”; a condition that tells them apart may be missing. Identical values can stand only once.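 Step 1: Grow cells in 96-well plates. Step 2: Expose to compound for 48 hours at 5 concentrations. Step 3: Interpolate endpoints linearly; if unreached, use highest concentration. GI50: concentration for 50% inhibition of growth. TGI denotes the concentration required for complete inhibition of growth.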

Tests used:
Experiment in all cases: growth of human tumour cells (NCI), 48 h
ACHN renal = system: ACHN renal
COLO 205 colon = system: COLO 205 colon
HCC-2998 colon = system: HCC-2998 colon
NCI-H226 lung = system: NCI-H226 lung
NCI-H23 lung = system: NCI-H23 lung
NCI-H460 lung = system: NCI-H460 lung
OVCAR-5 ovarian = system: OVCAR-5 ovarian
SF-268 CNS = system: SF-268 CNS
SR leukemia = system: SR leukemia
SW-620 colon = system: SW-620 colon

Row | Compound | GI50 (ACHN renal) | TGI (ACHN renal) | GI50 (COLO 205 colon) | TGI (COLO 205 colon) | GI50 (HCC-2998 colon) | TGI (HCC-2998 colon) | GI50 (NCI-H226 lung) | TGI (NCI-H226 lung) | GI50 (NCI-H23 lung) | TGI (NCI-H23 lung) | GI50 (NCI-H460 lung) | TGI (NCI-H460 lung) | GI50 (OVCAR-5 ovarian) | TGI (OVCAR-5 ovarian) | GI50 (SF-268 CNS) | TGI (SF-268 CNS) | GI50 (SR leukemia) | TGI (SR leukemia) | GI50 (SW-620 colon) | TGI (SW-620 colon)
1 | O=S(=O)(O)ONC1=NCCN1 | > 100 µM | > 100 µM | > 100 µM | > 100 µM | > 100 µM | > 100 µM | > 100 µM | > 100 µM | 94.2 µM | > 100 µM | > 100 µM | > 100 µM | > 100 µM | > 100 µM | > 100 µM | > 100 µM | > 100 µM | > 100 µM | 72.5 µM | > 100 µM
2 | NS(=O)(=O)c1ccc(NC(=O)Nc2ccccc2F)cc1 |  | > 100 µM |  | > 100 µM |  | > 100 µM |  | > 100 µM |  | > 100 µM |  | > 100 µM |  | > 100 µM |  | > 100 µM |  | > 100 µM |  | > 100 µM
3 | COC(=O)Cc1nc2ccccc2o1 |  | > 100 µM |  | > 100 µM |  | > 100 µM |  | > 100 µM |  | > 100 µM |  | > 100 µM |  | > 100 µM |  | > 100 µM |  | > 100 µM |  | > 100 µM
4 | Oc1ccc(Cl)cc1-c1cc(-c2ccc(F)cc2)n[nH]1 | 2.34 µM | 7.2 µM | 2.08 µM | 4.85 µM | 2.08 µM | 5.95 µM | 2.57 µM | 12.9 µM | 1.61 µM | 4.09 µM | 1.2 µM | 4.1 µM | 5.39 µM | > 100 µM | 2.66 µM | 11.4 µM | 1.24 µM | > 100 µM | 2.64 µM | 10.5 µM
5 | N#Cc1c2c(c(-c3cccs3)n(C3OC(CO)C(O)C(O)C3O)c1=S)CCc1ccccc1-2 (stereo not drawn) | 13.8 µM and > 92.2 µM | > 100 µM |  | > 100 µM |  | > 100 µM |  | > 100 µM | 13.5 µM and > 39.3 µM | > 100 µM | 37.8 µM and > 100 µM | > 100 µM |  | > 100 µM | > 100 µM | > 100 µM |  | > 100 µM |  | > 100 µM
6 | CCCCCc1c(C)[nH]c(/C=C2\N=C(c3ccc[nH]3)C=C2OCc2ccccc2)c1C | 0.0514 µM and 0.0324 µM | 0.941 µM and 0.75 µM | 0.0436 µM and 0.026 µM | 0.661 µM and 0.159 µM | 0.0419 µM and 0.038 µM | 1.7 µM and 1.24 µM | 0.0748 µM and 0.201 µM | 1.65 µM and 2.03 µM | 0.116 µM and 0.0563 µM | 2.23 µM and 0.627 µM | 0.0423 µM and 0.031 µM | 1.42 µM and 1.16 µM | 0.0701 µM and 0.0473 µM | 2.31 µM and 1.63 µM | 0.0488 µM and 0.0385 µM | 1.6 µM and 1.33 µM | 0.0226 µM and 0.025 µM |  | 0.0369 µM and 0.0295 µM | 1.21 µM and 0.322 µM
7 | C[N+](C)([O-])CCCNc1ccnc2cccc([N+](=O)[O-])c12 |  | > 100 µM |  | 46.4 µM |  | > 100 µM |  | > 100 µM |  | > 100 µM |  | 31.3 µM |  | > 100 µM |  | 97.5 µM |  | > 100 µM |  | > 100 µM
8 | COc1cc([C@@H]2c3cc4c(cc3C[C@H]3COC(=O)[C@@H]32)OCO4)cc2c1OCO2 |  | > 100 µM |  | 0.0149 µM |  | < 0.01 µM |  | < 0.01 µM |  |  |  | 0.33 µM |  | > 100 µM |  | > 100 µM |  | < 0.01 µM |  | > 100 µM
9 | Cc1ccc(S(=O)OC23CC4CC(CC(C4)C2)C3)cc1 (stereo not drawn) |  | > 100 µM |  | > 100 µM |  | > 100 µM |  | > 100 µM |  | > 100 µM |  | > 100 µM |  | > 100 µM |  | > 100 µM |  | > 100 µM |  | > 100 µM
10 | CCOC(=O)Cc1csc(NC(=O)COC(=O)c2ccc(OC)cc2)n1 | > 100 µM | > 100 µM | > 95.9 µM | > 100 µM | > 100 µM | > 100 µM | > 100 µM | > 100 µM | 29.8 µM | > 100 µM | 33.8 µM | > 100 µM | > 51.3 µM | > 83.8 µM | 16.6 µM | 40.9 µM | 6.04 µM |  | > 96.1 µM | > 100 µM
11 | O=C(O)C(=O)CBr | > 35.8 µM and 16.3 µM | > 53.9 µM and 31.6 µM | > 70.1 µM and 17.6 µM | > 100 µM and 39.5 µM | > 100 µM and 19.3 µM | > 100 µM and 36.3 µM | > 100 µM | > 100 µM | > 48.4 µM and 19.9 µM | > 74 µM and 39.5 µM | > 100 µM and 21.2 µM | > 100 µM and 41.9 µM | > 44.2 µM and 18.4 µM | > 64.8 µM and 37.5 µM | > 85.2 µM and 18.3 µM | > 100 µM and 32.5 µM | > 21.1 µM and 25.8 µM | > 64.8 µM and 71.1 µM | 6.8 µM | > 35.3 µM and 21.6 µM
12 | O=C(CCl)Nc1cc(O)c2c(c1)C(=O)c1cccc(O)c1C2=O | 1.55 µM | 2.98 µM | 1.55 µM | 3.35 µM | 1.75 µM | 3.4 µM | 1.31 µM | 4.93 µM | 1.13 µM | 3.45 µM | 1.79 µM | 3.92 µM | 2.32 µM | 5.19 µM | 1.69 µM | 3.9 µM | 0.346 µM | 2.86 µM | 1.1 µM | 3.95 µM
13 | O=C(c1ccccc1)C1C(C(=O)c2ccccc2)C(c2ccccc2)N(c2ccccc2)C1c1ccccc1 (stereo not drawn) |  | > 100 µM |  | > 100 µM |  | > 100 µM |  | > 100 µM |  | > 100 µM |  | > 100 µM |  | > 100 µM |  | > 100 µM |  | > 100 µM |  | > 100 µM
14 | O=C(Nc1ccc(I)cc1F)c1cc(I)ccc1O | 1.69 µM | > 100 µM | 7.17 µM | 24 µM | 2.63 µM | 15.1 µM | 0.739 µM | 6.11 µM | 0.531 µM | 2.25 µM | 0.506 µM | 22.4 µM | 3.05 µM | > 100 µM | 0.704 µM | > 100 µM | 1.38 µM | > 100 µM | 0.866 µM | > 36 µM
15 | COc1ccc(C(=O)O/N=C2/CCC/C2=C\c2ccccc2)cc1 |  | > 100 µM |  | > 100 µM |  | > 100 µM |  | > 100 µM |  | > 100 µM |  | > 100 µM |  | > 100 µM |  | > 100 µM |  | > 100 µM |  | > 100 µM
16 | CN(C)CC1CCCC/C1=N/OC(=O)c1ccc(Cl)c(Cl)c1 (stereo not drawn) |  | > 100 µM |  | > 100 µM |  | > 100 µM |  | > 100 µM |  | > 100 µM |  | > 100 µM |  | > 100 µM |  | > 100 µM |  | > 100 µM |  | > 100 µM
17 | COc1cccc(C2=C(c3cn(C)c4cccc(OC)c34)C(=O)NC2=O)c1 | 15.5 µM | > 25 µM | 6.48 µM | > 20.3 µM | > 25 µM | > 25 µM | > 25 µM | > 25 µM | 19.6 µM | > 25 µM | 8.75 µM | > 25 µM | > 23.5 µM | > 25 µM | 16.4 µM | > 25 µM | 2.08 µM | > 25 µM | 6.89 µM | > 25 µM
18 | COc1ccc(C2=NOP(c3ccccc3)(c3ccccc3)(c3ccccc3)C2)cc1 |  | > 100 µM |  | 23.5 µM |  | > 76.5 µM |  | 98.4 µM |  | > 72.5 µM |  | > 45.1 µM |  | > 75.9 µM |  | > 100 µM |  | 34.9 µM |  | > 56.2 µM
19 | O=C(Nc1cc(-c2cccnc2)nc(NCCCN2CCOCC2)n1)c1cc(Br)cc(C(F)(F)F)c1 | 3.04 µM | 11.3 µM | 1.77 µM | 3.47 µM | 1.77 µM | 3.49 µM | 9.3 µM | 22.7 µM | 3.55 µM | 15 µM | 2.97 µM | 8.94 µM | 6.33 µM | 23.5 µM | 2.63 µM | 10.4 µM | 2.6 µM | 41.7 µM | 2.25 µM | 5.48 µM
20 | COC(=O)[C@]12CC[C@@H](C)[C@H](C)[C@@H]1C1=CC[C@@H]3[C@@]4(C)CC(=O)[C@H](OC(=O)c5ccco5)[C@@]5(C)COC(=C45)C[C@@]3(C)[C@]1(C)CC2 | 2.94 µM | > 100 µM | 0.342 µM | 2.93 µM |  | > 100 µM | 83.1 µM | > 100 µM | 0.936 µM | > 100 µM | 0.568 µM | > 100 µM | > 100 µM | > 100 µM | 4.86 µM | > 100 µM | 0.371 µM | > 100 µM | 0.902 µM | > 100 µM
21 | COc1ccc(-c2c(N)n[nH]c2-c2cc(OC)c(OC)c(OC)c2)cc1 | 2.03 µM | > 100 µM | 0.363 µM |  | 0.286 µM | 19.8 µM | 0.644 µM | > 100 µM | 0.25 µM | 43.7 µM | 0.0993 µM | 17.2 µM | 0.572 µM | > 100 µM | 0.676 µM | > 48.4 µM | 0.0308 µM | 29.1 µM | 0.0587 µM | > 100 µM
22 | CN(C)CCNc1nc2ccccc2c2c(=O)c3ccccc3sc12 | 1.61 µM | 4.3 µM | 1.44 µM | 3.08 µM | 1.74 µM | 3.46 µM | 1.77 µM | 5.82 µM | 1.68 µM | 4.86 µM | 1.62 µM | 3.7 µM | 2.25 µM | 5.14 µM | 2.1 µM | 8.82 µM | 1.66 µM | 4.69 µM | 1.39 µM | 3.12 µM
23 | O=C(/C(=C/c1ccccc1)c1ccccc1)N1c2ccccc2CC1c1c[nH]c2ccccc12 (stereo not drawn) |  | > 100 µM |  | 24.7 µM |  | > 100 µM |  | > 100 µM |  | > 100 µM |  | > 100 µM |  | > 100 µM |  |  |  | > 100 µM |  | > 100 µM
